Experimental findings from patent US8097585B2, “Methods of treating inflammation by administration of heme oxygenase-1 and products of heme degradation” (priority 2002, dated 2012) are described below.

Assay [1] deals with B6AF1 splenocytes or purified T cells. As to the kind of experiment: Con A and anti-CD3 mAb mediated proliferation assay. Type of assay: cell-based, mouse. As to the method: Con A and anti-CD3 mAb mediated proliferation assay. B6AF1 splenocytes or purified T cells were prepared according to the herein-described method and used as responder cells. Responders (2.5×10^5/well) were stimulated with either Con A (1 μg/ml) or anti-CD3 mAb (1 μg/ml) and cultured in a 96 well round bottom plates. Purified T cells (5×10^4/well) were cultured in anti-CD3 mAb (10 μg/ml) coated 96 well flat bottom plates in the presence of anti-CD28 mAb (1 μg/ml). Cells were cultured with or without biliverdin (at various concentrations) for 48 hours at 37° C., 95% air with 5% CO2. They were pulsed with ^3H-thymidine (1 μCi/well) 16 hours before termination of cell culture and ^3H-thymidine incorporation was measured by using a β-counter. These proliferation assays were performed in triplicate and were repeated 3 times.

Assay [2] relates to ICAM-1. As to the kind of experiment: Real time RT-PCR of graft muscularis after SITx, ICAM-1. It is filed as in vivo, LEW rats. The conditions noted are these: BV treatment. Here is the method: Small Intestinal Transplantation. Orthotopic small intestinal transplantation (SITx) was performed in syngeneic Lewis rats. SITx with caval drainage was performed using a previously described procedure (Murase et al., in Handbook of Animal Models in Transplantation Research, Cramer et al., Eds. CRC Press, Boca Raton, Fla., pp. 203-213 (1994)). […] The graft was perfused via the aortic segment with 5 ml chilled Ringer's lactate solution, and the intestinal lumen was irrigated with 20 ml of cold saline solution containing 0.5% neomycin-sulfate (Sigma, St. Louis, Mo.). […]
SYBR green real time RT-PCR. The effects of administration of biliverdin on transplant-induced pro-inflammatory and anti-inflammatory gene expression were assessed in muscularis extracts by RT-PCR Biliverdin ([…], i.p.) was administered to both the donor and recipient three hours preoperatively. […] Equal aliquots (5 μg) of total RNA from each sample were quantified by spectrophotometry (wavelength […]) and aliquoted at a concentration of 40 ng/μl. Peak mRNA expression was quantified in duplicate by SYBR Green two-step, real-time RT-PCR. […] Real-time PCR data were plotted as the ΔRn fluorescence signal versus the cycle number. […] Quantification of mRNA expression was normalized to GAPDH and calculated relative to control using the comparative CT method (Schmittgen et al., J. Biochem. Biophys. Methods 46(1-2):69-8, 2000). […]
On the technique in general: Quantitative PCR measures a nucleic acid by following its amplification.

Assay [3] has as its system IL-6. As to the kind of experiment: Serum IL-6 (ELISA), SITx with preserved intestine. Type of assay: in vivo, LEW rats. As to the method: Detection of Serum Mediators. Serum samples from the recipients transplanted with preserved intestine were taken at 3 and 12 hours after reperfusion and stored at […] until evaluation. Serum IL-6 was determined using a rat enzyme-linked immunoassay (ELISA) kits as described by the manufacturer (R & D Systems, Inc., Cambridge, Mass.). To monitor the production of nitric oxide, the stable end products of NO metabolism, serum nitrite/nitrate levels, were measured 12 hours after engraftment using a commercially available test kit (Cayman, Ann Arbor, Mich.). In this assay system, nitrate is reduced to nitrite using nitrate reductase, and the nitrite concentration of the sample is subsequently measured using the Griess reaction.
For orientation: An ELISA detects its analyte on a solid surface through an enzyme-linked reagent.

The test system of assay [4] is intestinal graft. The assay is described as follows: Intestinal microvascular blood flow (laser Doppler). Type of assay: in vivo, LEW rats. To be noted: BV. As to the method:
Measurement of Intestinal Blood Flow. Intestinal microvascular blood flow was monitored by placing the flat probe of a laser Doppler flowmeter (BLF 21D, Transonic Systems, Ithaca, N.Y.) on the serosal surface of the graft jejunum and ileum adjacent to the mesenteric border. Blood flows in SMA and marginal artery (MA) were also analyzed.
Measurement of Intestinal Blood Flow. Microvascular blood flow for in grafts preserved for 6 hours was measured using a laser Doppler flowmeter (BLF 21D, Transonic Systems, Ithaca, N.Y.) equipped with a flat probe. Intestinal microvascular blood flow was monitored by placing the probe on the serosal surface of the graft jejunum and ileum adjacent to the mesenteric border.

Where a name gives a salt, the structure may show the parent alone.

`C=CC1=C(C)/C(=C/C2=NC(=C\c3[nH]c(/C=C4\NC(=O)C(C)=C4C=C)c(C)c3CCC(=O)O)/C(CCC(=O)O)=C2C)NC1=O` [biliverdin, biliverdin dihydrochloride]: the “proliferation of purified T cells” value in assay [1] (anti-CD3 mAb plus anti-CD28 mAb co-stimulation) is “suppressed”. In addition, the “ConA or anti-CD3 mAb driven T cell proliferation” value in assay [1] (biliverdin 50 μM) and in assay [1] (biliverdin 100 μM) was “significant suppressive effect” each time. Also, the “reduction of ICAM-1 expression in the graft” value in assay [2] is “up to 30%”. Further, the “serum IL-6 protein concentration” value in assay [3] (3 hours after engraftment, untreated transplant 5131.4±3169.1) stood at 1652 ± 306.9 pg/mL. Further, the “serum IL-6 concentrations” value in assay [3] (BV treated controls (no transplant)) is given as “low”. Moreover, in assay [4], the “microvascular blood flow following transplantation” value is given as “had no effect”.
